The source of these data is US7223759B2, “Antibacterial 3,5-diaminopiperidine-substituted aromatic and heteroaromatic compounds” (Anadys Pharmaceuticals, Inc., priority 2003, dated 2007).

Where only a bound is given, the exact number is not on record here.

The test system of one test is Escherichia coli (ATCC25922) or Staphylococcus aureus (ATCC25923). The test is described as follows: Antibacterial MIC, microdilution method in Mueller-Hinton medium. It counts as cell-based. The following applies: Escherichia coli, 18 h, MIC in E. coli or S. aureus; two-fold serial dilutions 64 to 0.5 μg/ml in duplicate; 18 hours of incubation at 35° C.; read-out: Potency (MIC). Summed up: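 Read after 18 h incubation at 35° C, MIC is the lowest compound level that blocked growth. Compounds were tested in duplicate over 64–0.5 μg/ml two-fold dilutions using Mueller-Hinton microdilution per NCCLS standard.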
Broadly, the MIC is the least concentration at which growth counts as inhibited. With `COc1ccc(Nc2ccc(Nc3nc(N4C[C@H](N)C[C@H](N)C4)nc(N4C[C@H](N)C[C@H](N)C4)n3)cc2)cc1` [N-[4-(4-methoxy-phenylamino)-phenyl]-4,6-Bis-((3R,5S)-3,5-diamino-piperidin-1-yl)-[1,3,5]triazine-2-amine], the MIC is under 64 µg/mL.

Consider `Cc1cc(Nc2nc(N3CCCCC3)nc(N3CCCCC3)n2)ccc1N1C(=O)c2ccc(Cl)cc2C1=O.Cl` [N-[4-(5-chloro-1,3-dioxo-1,3-dihydro-isoindol-22-yl)-3-methyl-phenyl]-4,6-Bis-((3R,5S)-3,5-diamino-piperidin-1-yl)-[1,3,5]triazine-2-amine], for which the MIC was under 64 µg/mL. Still for that read-out and setting: to `Cl.O=[N+]([O-])c1ccc(S(=O)(=O)c2ccc(Nc3nc(N4CCCCC4)nc(N4CCCCC4)n3)cc2)cc1` [N-[4-((2,4-dimethoxy-benzoylamino)-3-hydroxy-phenyl]-4,6-Bis-((3R,5S)-3,5-diamino-piperidin-1-yl)-[1,3,5]triazine-2-amine] belongs under 16 µg/mL; to `CNC(=N)Nc1ccc(Nc2nc(C3CCCCC3)nc(N3CCCCC3)n2)cc1.Cl` [N-[4-(N-methyl-quanidino)-phenyl]-4,6-Bis-((3R,5S)-3,5-diamino-piperidin-1-yl)-[1,3,5]triazine-2-amine], over 64 µg/mL. Same read-out and setting: with `Cl.NC(=O)CNc1nc(N2C[C@H](N)C[C@H](N)C2)nc(N2C[C@H](N)C[C@H](N)C2)n1` [N-carbamoylmethyl-4,6-Bis-((3R,5S)-3,5-diamino-piperidin-1-yl)-[1,3,5]triazine-2-amine] the figure was over 64 µg/mL. Same read-out and setting: with `Cl.N[C@@H]1C[C@H](N)CN(c2nc(NCc3ccco3)nc(N3C[C@H](N)C[C@H](N)C3)n2)C1` [N-furan-2-ylmethyl-4,6-Bis-((3R,5S)-3,5-diamino-piperidin-1-yl)-[1,3,5]triazine-2-amine] the figure was over 64 µg/mL.

The same test, now with this note: Escherichia coli, 18 h, read-out: Potency (MIC).
Consider `N[C@@H]1C[C@H](N)CN(c2nc(Nc3ccc(NC(=O)c4ccc(F)cc4O)cc3)nc(N3C[C@H](N)C[C@H](N)C3)n2)C1` [N-[4-(4-fluoro-2-hydroxy-benzoylamino)-phenyl]-4,6-Bis-((3R,5S)-3,5-diamino-piperidin-1-yl)-[1,3,5]triazine-2-amine], for which the MIC was under 16 µg/mL. Still for that read-out and setting: with `N[C@@H]1C[C@H](N)CN(c2nc(Nc3ccc(C(=O)Nc4ccc(F)cc4)c(O)c3)nc(N3C[C@H](N)C[C@H](N)C3)n2)C1` [N-[4-(4-fluoro-phenylcarbamoyl)-3-hydroxy-phenyl]-4,6-Bis-((3R,5S)-3,5-diamino-piperidin-1-yl)-[1,3,5]triazine-2-amine] the figure was under 16 µg/mL; with `Cc1ccnc(NS(=O)(=O)c2ccc(Nc3nc(N4C[C@H](N)C[C@H](N)C4)nc(N4C[C@H](N)C[C@H](N)C4)n3)cc2)n1` [N-[4-(4-methyl-pyrimidin-2-ylsulfamoyl)-phenyl]-4,6-Bis-((3R,5S)-3,5-diamino-piperidin-1-yl)-[1,3,5]triazine-2-amine], over 64 µg/mL; with `N[C@@H]1C[C@H](N)CN(c2nc(Nc3ccc(S(=O)(=O)c4ccc([N+](=O)[O-])cc4)cc3)nc(N3C[C@H](N)C[C@H](N)C3)n2)C1` [N-[4-(4-nitro-benzenesulfonyl)-phenyl]-4,6-Bis((3R,5S)-3,5-diamino-piperidin-1-yl)-[1,3,5]triazine-2-amine], under 64 µg/mL. On the same count and under the same terms, with `N[C@@H]1C[C@H](N)CN(c2nc(Nc3ccc(C(=O)N4CCc5cc(Br)ccc54)c(O)c3)nc(N3C[C@H](N)C[C@H](N)C3)n2)C1` [N-[4-(5-bromo-2,3-dihydro-indole-1-carbonyl)-3-hydroxy-phenyl]-4,6-Bis-((3R,5S)-3,5-diamino-piperidin-1-yl)-[1,3,5]triazine-2-amine] the figure was under 16 µg/mL; with `N[C@@H]1C[C@H](N)CN(c2nc(Nc3ccc(NC(=O)c4cc(Br)ccc4O)c(O)c3)nc(N3C[C@H](N)C[C@H](N)C3)n2)C1` [N-[4-(5-bromo-2-hydroxy-benzoylamino)-3-hydroxy-phenyl]-4,6-Bis-((3R,5S)-3,5-diamino-piperidin-1-yl)-[1,3,5]triazine-2-amine], under 16 µg/mL; with `N[C@@H]1C[C@H](N)CN(c2nc(Nc3ccc(NC(=O)c4cc(Br)ccc4O)cc3)nc(N3C[C@H](N)C[C@H](N)C3)n2)C1` [N-[4-(5-bromo-2-hydroxy-benzoylamino)-phenyl]-4,6-Bis-((3R,5S)-3,5-diamino-piperidin-1-yl)-[1,3,5]triazine-2-amine], under 16 µg/mL.

Take `Cc1ccc2nc(-c3ccc(Nc4nc(N5C[C@H](N)C[C@H](N)C5)nc(N5C[C@H](N)C[C@H](N)C5)n4)cc3)sc2c1` [N-[4-(6-methyl-benzothiazol-2-yl)-phenyl]-4,6-Bis-((3R,5S)-3,5-diamino-piperidin-1-yl)-[1,3,5]triazine-2-amine]: the MIC was under 16 µg/mL. Regarding `N[C@@H]1C[C@H](N)CN(c2nc(Nc3ccc(C(=O)Nc4ccc5c(c4)OCO5)c(O)c3)nc(N3C[C@H](N)C[C@H](N)C3)n2)C1` [N-[4-(benzo[1,3]dioxol-5-ylcarbamoyl)-3-hydroxy-phenyl]-4,6-Bis-((3R,5S)-3,5-diamino-piperidin-1-yl)-[1,3,5]triazine-2-amine], the minimum inhibitory concentration (MIC) is under 16 µg/mL. On to `N[C@@H]1C[C@H](N)CN(c2nc(Nc3ccc(C(=O)Nc4ccc(-c5ccccc5)cc4)c(O)c3)nc(N3C[C@H](N)C[C@H](N)C3)n2)C1` [N-[4-(biphenyl-4-ylcarbamoyl)-3-hydroxy-phenyl]-4,6-Bis-((3R,5S)-3,5-diamino-piperidin-1-yl)-[1,3,5]triazine-2-amine], for which the MIC was under 16 µg/mL. Regarding `CCN(c1ccc(Nc2nc(N3C[C@H](N)C[C@H](N)C3)nc(N3C[C@H](N)C[C@H](N)C3)n2)cc1)C(C)C` [N-[4-(ethyl-isopropyl-amino)-phenyl]-4,6-Bis-((3R,5S)-3,5-diamino-piperidin-1-yl)-[1,3,5]triazine-2-amine], the MIC was over 64 µg/mL. Still for that read-out and setting: with `N[C@@H]1C[C@H](N)CN(c2nc(Nc3ccc(S(=O)(=O)Nc4ccccn4)cc3)nc(N3C[C@H](N)C[C@H](N)C3)n2)C1` [N-[4-(pyridin-2-ylsulfamoyl)-phenyl]-4,6-Bis-((3R,5S)-3,5-diamino-piperidin-1-yl)-[1,3,5]triazine-2-amine] the figure was over 64 µg/mL; with `N[C@@H]1C[C@H](N)CN(c2nc(NCc3ccc4c(c3)OCO4)nc(N3C[C@H](N)C[C@H](N)C3)n2)C1` [N-benzo[1,3]dioxol-5-ylmethyl-4,6-Bis-((3R,5S)-3,5-diamino-piperidin-1-yl)-[1,3,5]triazine-2-amine], over 64 µg/mL.

Take `N[C@@H]1C[C@H](N)CN(c2nc(Nc3nc4ccccc4s3)nc(N3C[C@H](N)C[C@H](N)C3)n2)C1` [N-benzothiazol-2-yl-4,6-Bis-((3R,5S)-3,5-diamino-piperidin-1-yl)-[1,3,5]triazine-2-amine]: the minimal inhibitory concentration (MIC) was under 64 µg/mL. Still for that read-out and setting: to `N[C@@H]1C[C@H](N)CN(c2nc(Nc3ccc(-c4ccccc4)cc3)nc(N3C[C@H](N)C[C@H](N)C3)n2)C1` [N-biphenyl-4-yl-4,6-Bis-((3R,5S)-3,5-diamino-piperidin-1-yl)-[1,3,5]triazine-2-amine] belongs under 64 µg/mL; to `N[C@@H]1C[C@H](N)CN(c2nc(NCc3ccc(-c4ccccc4)cc3)nc(N3C[C@H](N)C[C@H](N)C3)n2)C1` [N-biphenyl-4-ylmethyl-4,6-Bis-((3R,5S)-3,5-diamino-piperidin-1-yl)-[1,3,5]triazine-2-amine], under 64 µg/mL.
